Results reported in patent US20260207578A1, “COMPOUND BASED ON SULFUR/OXYGEN SUBSTITUTED GLUTARIMIDE-BASED ISOINDOLINONE SKELETON AND USE THEREOF” (Gluetacs Therapeutics (Shanghai) Co., LTD., priority 2022, published 2026).

Experiments:
[1] = molecular target: T1, human Cereblon WT GST-tagged protein (Homo sapiens, UniProt Q96SW2); assay: CRBN-binding affinity, HTRF (CEREBLON BINDING kit); details: displacement of Thalidomide-Re reagent, 3 hours at room temperature
T1 construct: purchased CISBIO 64BDCRBNPEH
Experimental: The CEREBLON BINDING kits (specification: 10,000 tests; product number: Catalog #64BDCRBNPEH; CISBIO company) was used to determine the CRBN binding ability of the compounds to be tested through a HTRF method (homogeneous time-resolved fluorescence). The specific methods are as follows: • 1. […] Then, 2.5 μL of human Cereblon WT GST-tagged protein solution was added to each well. Finally, 5 μL of the thoroughly mixed Thalidomide-Re reagent and GST Eu antibody working solution were added to each of the aforementioned wells. […] The blank control wells were sequentially added with 2.5 μL of diluent #9 (1×) solution, 2.5 μL of PROTAC binding buffer, and 5 μL of thoroughly mixed Thalidomide-Re reagent and GST Eu antibody working solution. • 4.
OD 620 nmcompound is the absorbance value of each well of the compounds to be tested of the present disclosure at an emission wavelength of 620 nm. […] OD 620 nmcontrol is the absorbance value of the blank control well at an emission wavelength of 620 nm. […] OD 620 nmStd0 is the absorbance value of the solvent control well at an emission wavelength of 620 nm.

[2] = molecular target: T2, Wee1 (Homo sapiens, UniProt P30291+Q96SW2); assay: Western-blot assay, substrate protein in hPBMCs; format: cell-based; details: hPBMC cells, 24 hours, tested at 50 nM and 500 nM, table does not say which
T2 construct: endogenous in cells; host or cells: human PBMCs (Milecell Biotechnologies)
Experimental: (§1) The effect of the compounds of the present disclosure on the expression of target proteins in cells was detected using conventional Western blot analysis.
(§2) Human peripheral blood mononuclear cells (hPBMCs) at a density of 1×10^6 cells/mL were thawed according to the PBMC Recovery Protocol (Milecell Biotechnologies Inc, Shanghai).
(§3) After 24 hours of compounds treatment, cells were harvested and lysed in RIPA protein lysate containing phosphatase inhibitors on ice for 30-60 min, followed by centrifugation. The supernatant was aspirated as the extracted total cell protein. The protein concentration of the supernatant was determined using the conventional BCA (Bicinchoninic Acid) assay. The supernatant was then mixed with 4× SDS sample loading buffer, denatured at 95° C. for 5 minutes, and then subjected to SDS-PAGE electrophoresis on a polyacrylamide gel. Proteins were then transferred to a nitrocellulose (NC) membrane, blocked at room temperature for 1-2 h, and processed for antibody incubation and detection according to the manufacturer's instructions (Cell Signaling Technology).
(§4) Half-Maximal Degradation Concentration value (the drug concentration required for degrading proteins by 50%, abbreviated as DC50) reads method: comparing the grayscale values of Western blot bands from drug-treated samples with those from blank DMSO-treated controls, and identifying the drug concentration range at which the grayscale value is half that of the DMSO-treated control bands.
(§5) DC50 values can be calculated using ImageJ software to measure grayscale values of Western blot bands from drug-treated samples. The concentration-response curve is fitted to estimate the drug concentration corresponding to half the grayscale value.
(§6) Target protein remaining (%) refers to the percentage of target protein remaining in hPBMC cells after treatment with protein degrader compounds.
(§7) Calculation method for protein remaining (%): Use ImageJ software to measure grayscale values of Western blot bands from drug (protein degrader)-treated samples. The grayscale value of drug-treated bands is divided by that of internal control protein bands, and the resulting quotient is normalized to obtain the relative percentage of remaining target protein after protein degrader treatment.
(§8) Target protein degradation rate (%)=100%−target protein remaining (%).

[3] = molecular target: T3, GSPT1 (Homo sapiens, UniProt P15170+Q96SW2); assay: Western-blot assay, substrate protein in hPBMCs; format: cell-based; details: hPBMC cells, 24 hours, tested at 50 nM and 500 nM, table does not say which
T3 construct: endogenous in cells; host or cells: human PBMCs (Milecell Biotechnologies)
Experimental: as §1, §2, §3, §4, §5, §6, §7, §8

T1 sequence (Q96SW2 whole entry): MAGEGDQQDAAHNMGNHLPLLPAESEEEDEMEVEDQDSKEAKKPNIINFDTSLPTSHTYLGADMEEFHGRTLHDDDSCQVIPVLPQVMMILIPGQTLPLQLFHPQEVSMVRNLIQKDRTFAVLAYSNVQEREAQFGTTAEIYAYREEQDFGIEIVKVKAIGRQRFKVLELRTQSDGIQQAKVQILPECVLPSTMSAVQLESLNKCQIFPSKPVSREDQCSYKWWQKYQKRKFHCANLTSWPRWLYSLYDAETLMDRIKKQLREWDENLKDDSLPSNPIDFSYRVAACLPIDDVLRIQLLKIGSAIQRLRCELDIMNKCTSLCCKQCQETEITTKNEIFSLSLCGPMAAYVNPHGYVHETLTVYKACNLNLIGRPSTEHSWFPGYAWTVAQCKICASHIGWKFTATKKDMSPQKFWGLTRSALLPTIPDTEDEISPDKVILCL
T2 sequence (P30291 whole entry): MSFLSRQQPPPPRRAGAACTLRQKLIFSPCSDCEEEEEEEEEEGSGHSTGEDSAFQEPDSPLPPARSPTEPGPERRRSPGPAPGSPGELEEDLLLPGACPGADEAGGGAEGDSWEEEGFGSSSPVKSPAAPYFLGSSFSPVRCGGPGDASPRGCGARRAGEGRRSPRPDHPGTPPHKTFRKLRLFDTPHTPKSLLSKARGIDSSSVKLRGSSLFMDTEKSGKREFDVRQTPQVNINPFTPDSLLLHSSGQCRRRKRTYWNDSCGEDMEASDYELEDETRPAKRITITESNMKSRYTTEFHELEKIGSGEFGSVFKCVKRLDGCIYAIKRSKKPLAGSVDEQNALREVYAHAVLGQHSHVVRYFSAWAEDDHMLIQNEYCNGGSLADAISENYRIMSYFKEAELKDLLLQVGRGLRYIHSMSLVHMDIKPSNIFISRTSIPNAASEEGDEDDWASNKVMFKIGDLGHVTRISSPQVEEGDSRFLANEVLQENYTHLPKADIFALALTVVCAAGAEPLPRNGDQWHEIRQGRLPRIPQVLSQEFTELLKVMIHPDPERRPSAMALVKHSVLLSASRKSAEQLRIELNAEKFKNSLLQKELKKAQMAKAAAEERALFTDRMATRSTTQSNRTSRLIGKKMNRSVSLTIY
T2 sequence (Q96SW2 whole entry): as the sequence (Q96SW2 whole entry) above
T2 sequence (Q16531 whole entry partner): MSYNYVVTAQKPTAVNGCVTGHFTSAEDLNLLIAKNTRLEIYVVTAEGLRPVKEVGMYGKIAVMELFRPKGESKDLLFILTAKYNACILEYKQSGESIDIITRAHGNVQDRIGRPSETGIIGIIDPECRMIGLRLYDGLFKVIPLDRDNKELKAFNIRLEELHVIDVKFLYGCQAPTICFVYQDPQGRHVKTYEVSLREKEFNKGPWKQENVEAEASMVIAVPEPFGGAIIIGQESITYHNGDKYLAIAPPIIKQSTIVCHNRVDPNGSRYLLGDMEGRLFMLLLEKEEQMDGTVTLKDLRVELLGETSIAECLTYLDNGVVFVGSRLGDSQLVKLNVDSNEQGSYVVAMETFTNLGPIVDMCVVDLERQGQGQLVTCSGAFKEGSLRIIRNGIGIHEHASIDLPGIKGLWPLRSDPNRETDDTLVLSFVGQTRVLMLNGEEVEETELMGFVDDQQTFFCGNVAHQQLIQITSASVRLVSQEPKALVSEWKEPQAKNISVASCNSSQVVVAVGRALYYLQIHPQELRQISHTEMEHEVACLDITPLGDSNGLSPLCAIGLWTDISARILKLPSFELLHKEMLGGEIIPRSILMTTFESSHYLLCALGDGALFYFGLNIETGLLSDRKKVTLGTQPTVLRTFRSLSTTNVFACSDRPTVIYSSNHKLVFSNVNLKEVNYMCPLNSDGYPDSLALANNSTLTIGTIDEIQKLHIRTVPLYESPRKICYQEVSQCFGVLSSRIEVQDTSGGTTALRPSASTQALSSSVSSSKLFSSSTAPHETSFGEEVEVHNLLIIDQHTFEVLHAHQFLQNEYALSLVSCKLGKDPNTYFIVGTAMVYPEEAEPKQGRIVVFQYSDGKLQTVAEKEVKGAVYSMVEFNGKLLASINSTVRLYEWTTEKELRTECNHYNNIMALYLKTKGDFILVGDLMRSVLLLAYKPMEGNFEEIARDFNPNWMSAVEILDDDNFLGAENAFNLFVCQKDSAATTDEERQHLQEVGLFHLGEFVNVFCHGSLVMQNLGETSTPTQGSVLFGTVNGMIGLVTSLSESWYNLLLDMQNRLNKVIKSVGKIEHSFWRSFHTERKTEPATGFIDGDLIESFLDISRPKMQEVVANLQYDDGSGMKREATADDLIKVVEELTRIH
T3 sequence (P15170 whole entry): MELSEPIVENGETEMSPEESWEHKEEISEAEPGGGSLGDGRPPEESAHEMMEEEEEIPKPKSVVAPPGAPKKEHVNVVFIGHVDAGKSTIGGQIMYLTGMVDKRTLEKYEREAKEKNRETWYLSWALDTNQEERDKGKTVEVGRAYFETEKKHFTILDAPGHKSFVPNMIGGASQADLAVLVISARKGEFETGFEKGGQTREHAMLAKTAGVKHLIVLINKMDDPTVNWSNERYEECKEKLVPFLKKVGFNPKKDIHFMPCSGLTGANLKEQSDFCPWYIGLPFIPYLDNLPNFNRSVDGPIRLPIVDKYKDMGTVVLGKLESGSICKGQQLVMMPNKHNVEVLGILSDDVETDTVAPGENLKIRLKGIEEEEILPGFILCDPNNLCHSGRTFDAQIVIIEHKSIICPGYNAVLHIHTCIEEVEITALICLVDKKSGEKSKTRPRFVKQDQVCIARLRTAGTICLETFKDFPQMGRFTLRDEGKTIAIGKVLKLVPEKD
T3 sequence (Q96SW2 whole entry): as the sequence (Q96SW2 whole entry) above
T3 sequence (Q16531 whole entry partner): as the sequence (Q16531 whole entry partner) above

Compound: CC1(C)CCC(CN2CC(Sc3ccc4c(c3)C(=O)N(C3CCC(=O)NC3=O)C4)C2)=C(c2ccc(Cl)cc2)C1 (stereo not shown) [GT-06757, 3-(6-((1-((4′-chloro-5,5-dimethyl-3,4,5,6-tetrahydro-[1,1′-biphenyl]-2-yl)methyl)azetidin-3-yl)thio)-1-oxoisoindolin-2-yl)piperidine-2,6-dione]
- IC50 [1]: 1000 to 1900 nM

Compound: O=C1CCC(N2Cc3cc(SC4CCC5(CCNCC5)CC4)ccc3C2=O)C(=O)N1 (stereo not shown) [GT-06998, 3-(5-((3-azaspiro[5.5]undecan-9-yl)thio)-1-oxoisoindolin-2-yl)piperidine-2,6-dione]
- IC50 [1]: 1000 to 1900 nM

Compound: O=C1CCC(N2Cc3c(OC4CNC4)cccc3C2=O)C(=O)N1 (stereo not shown) [GT-07000, 3-(4-(azetidin-3-yloxy)-1-oxoisoindolin-2-yl)piperidine-2,6-dione]
- IC50 [1]: < 500 nM

Compound: O=C1CCC(N2Cc3ccc(SC4CNC4)cc3C2=O)C(=O)N1 (stereo not shown) [GT-06993, 3-(6-(azetidin-3-ylthio)-1-oxoisoindolin-2-yl)piperidine-2,6-dione]
- IC50 [1]: 1000 to 1900 nM

Compound: O=C1CCC(N2Cc3cc(SC4C[C@@H]5CN(C(=O)c6ccccc6-c6ccc(Cl)cc6)C[C@H]5C4)ccc3C2=O)C(=O)N1 (stereo partly drawn) [GT-07023, 3-(5-(((3aS,6aS)-2-(4′-chloro-[1,1′-biphenyl]-2-carbonyl)octahydro-cyclopenta[c]pyrrol-5-yl)thio)-1-oxoisoindolin-2-yl)piperidine-2,6-dione]
- IC50 [1]: < 500 nM
- substrate protein remaining % [2]: A (0%≤ substrate protein remaining % ≤80%)

Compound: CC1(C)CCC(C(=O)N2CCC(Sc3ccc4c(c3)CN(C3CCC(=O)NC3=O)C4=O)C(F)(F)C2)=C(c2ccc(Cl)cc2)C1 (stereo not shown) [GT-07017, 3-(5-((1-(4′-chloro-5,5-dimethyl-3,4,5,6-tetrahydro-[1,1′-biphenyl]-2-carbonyl)-3,3-difluoropiperidin-4-yl)thio)-1-oxoisoindolin-2-yl)piperidine-2,6-dione]
- IC50 [1]: 1000 to 1900 nM

Compound: O=C1CCC(N2Cc3cc(SC4CCNC4)ccc3C2=O)C(=O)N1 (stereo not shown) [GT-04309, 3-(1-oxo-5-(pyrrolidin-3-ylthio)isoindolin-2-yl)piperidine-2,6-dione]
- substrate protein remaining % [3]: A (0%≤ substrate protein remaining % ≤80%)

Compound: O=C1CCC(N2Cc3cc(OC4CN(CC5=C(c6ccc(Cl)cc6)CCC(F)(F)C5)C4)ccc3C2=O)C(=O)N1 (stereo not shown) [GT-06563, 3-(5-((1-((4′-chloro-4,4-difluoro-3,4,5,6-tetrahydro-[1,1′-biphenyl]-2-yl)methyl)azetidin-3-yl)oxy)-1-oxoisoindolin-2-yl)piperidine-2,6-dione]
- IC50 [1]: 500 to 1000 nM
- substrate protein remaining % [2]: A (0%≤ substrate protein remaining % ≤80%)

Compound: O=C1CCC(N2Cc3cc(SC4CC5CNCC5C4)ccc3C2=O)C(=O)N1 (stereo not shown) [GT-06996, 3-(5-((octahydrocyclopenta[c]pyrrol-5-yl)thio)-1-oxoisoindolin-2-yl)piperidine-2,6-dione]
- IC50 [1]: 1000 to 1900 nM

Compound: O=C1CCC(N2Cc3cc(SC4CN(C(c5ccccc5)c5cccnc5)C4)ccc3C2=O)C(=O)N1 (stereo not shown) [GT-06807, 3-(1-oxo-5-((1-(phenyl(pyridin-3-yl)methyl)azetidin-3-yl)thio)isoindolin-2-yl)piperidine-2,6-dione]
- IC50 [1]: < 500 nM

Compound: O=C1CCC(N2Cc3c(SC4CNC4)cccc3C2=O)C(=O)N1 (stereo not shown) [GT-06992, 3-(4-(azetidin-3-ylthio)-1-oxoisoindolin-2-yl)piperidine-2,6-dione]
- IC50 [1]: 500 to 1000 nM

Compound: O=C1CCC(N2Cc3cc(SC4CN(Cc5ccc(-c6ccco6)s5)C4)ccc3C2=O)C(=O)N1 (stereo not shown) [GT-06517, 3-(5-((1-((5-(furan-2-yl)thiophen-2-yl)methyl)azetidin-3-yl)thio)-1-oxoisoindolin-2-yl)piperidine-2,6-dione]
- IC50 [1]: < 500 nM

Compound: O=C1CCC(N2Cc3cc(OC4CNC4)ccc3C2=O)C(=O)N1 (stereo not shown) [GT-03614, 3-(5-(azetidin-3-yloxy)-1-oxoisoindolin-2-yl)piperidine-2,6-dione]
- substrate protein remaining % [2]: A (0%≤ substrate protein remaining % ≤80%)

Compound: O=C1CCC(N2Cc3cc(OC4CN(C(=O)c5ccccc5-c5ccc(Cl)cc5)C4)ccc3C2=O)C(=O)N1 (stereo not shown) [GT-06183, 3-(5-((1-(4′-chloro-[1,1′-biphenyl]-2-carbonyl)azetidin-3-yl)oxy)-1-oxoisoindolin-2-yl)piperidine-2,6-dione]
- IC50 [1]: < 500 nM
- substrate protein remaining % [2]: A (0%≤ substrate protein remaining % ≤80%)

Compound: O=C1CCC(N2Cc3cc(OC4CCCNCC4)ccc3C2=O)C(=O)N1 (stereo not shown) [GT-07003, 3-(5-(azepan-4-yloxy)-1-oxoisoindolin-2-yl)piperidine-2,6-dione]
- substrate protein remaining % [2]: A (0%≤ substrate protein remaining % ≤80%)

Compound: O=C1CCC(N2Cc3cc(SC4CCCN(C(=O)c5ccccc5-c5ccc(Cl)cc5)CC4)ccc3C2=O)C(=O)N1 (stereo not shown) [GT-06644, 3-(5-((1-(4′-chloro-[1,1′-biphenyl]-2-carbonyl)azepan-4-yl)thio)-1-oxoisoindolin-2-yl)piperidine-2,6-dione]
- IC50 [1]: < 500 nM
- substrate protein remaining % [3]: A (0%≤ substrate protein remaining % ≤80%)

Compound: CC1(C)CCC(C(=O)N2CCC(Sc3ccc4c(c3)CN(C3CCC(=O)NC3=O)C4=O)C2)=C(c2ccc(Cl)cc2)C1 (stereo not shown) [GT-06139, 3-(5-((1-(4′-chloro-5,5-dimethyl-3,4,5,6-tetrahydro-[1,1′-biphenyl]-2-carbonyl)pyrrolidin-3-yl)thio)-1-oxoisoindolin-2-yl)piperidine-2,6-dione]
- IC50 [1]: 500 to 1000 nM

Compound: CC1(C)CCC(C(=O)N2CCCC(Oc3ccc4c(c3)CN(C3CCC(=O)NC3=O)C4=O)CC2)=C(c2ccc(Cl)cc2)C1 (stereo not shown) [GT-07018, 3-(5-((1-(4′-chloro-5,5-dimethyl-3,4,5,6-tetrahydro-[1,1′-biphenyl]-2-carbonyl)azepan-4-yl)oxy)-1-oxoisoindolin-2-yl)piperidine-2,6-dione]
- IC50 [1]: < 500 nM

Compound: O=C1CCC(N2Cc3cc(SC4CCN(Cc5ccccc5-c5ccc(Cl)cc5)C4)ccc3C2=O)C(=O)N1 (stereo not shown) [GT-04195, 3-(5-((1-((4′-chloro-[1,1′-biphenyl]-2-yl)methyl)pyrrolidin-3-yl)thio)-1-oxoisoindolin-2-yl)piperidine-2,6-dione]
- IC50 [1]: 1000 to 1900 nM

Compound: O=C1CCC(N2Cc3cc(OC4CN(C(c5ccc(Cl)cc5)c5ccc(Cl)cc5)C4)ccc3C2=O)C(=O)N1 (stereo not shown) [GT-06520, 3-(5-((1-(bis(4-chlorophenyl)methyl)azetidin-3-yl)oxy)-1-oxoisoindolin-2-yl)piperidine-2,6-dione]
- IC50 [1]: 1000 to 1900 nM
- substrate protein remaining % [3]: A (0%≤ substrate protein remaining % ≤80%)

Compound: O=C1CCC(N2Cc3cc(OC4CC5CNCC5C4)ccc3C2=O)C(=O)N1 (stereo not shown) [GT-07004, 3-(5-((octahydrocyclopenta[c]pyrrol-5-yl)oxy)-1-oxoisoindolin-2-yl)piperidine-2,6-dione]
- IC50 [1]: 1000 to 1900 nM

Compound: O=C1CCC(N2Cc3cc(SC4CCNCC4(F)F)ccc3C2=O)C(=O)N1 (stereo not shown) [GT-06999, 3-(5-((3,3-difluoropiperidin-4-yl)thio)-1-oxoisoindolin-2-yl)piperidine-2,6-dione]
- IC50 [1]: 500 to 1000 nM

Compound: O=C1CCC(N2Cc3cc(SC4CN(CC5=C(c6ccc(F)cc6)CCOC5)C4)ccc3C2=O)C(=O)N1 (stereo not shown) [GT-06513, 3-(5-((1-((4-(4-fluorophenyl)-5,6-dihydro-2H-pyran-3-yl)methyl)azetidin-3-yl)thio)-1-oxoisoindolin-2-yl)piperidine-2,6-dione]
- IC50 [1]: < 500 nM
- substrate protein remaining % [3]: A (0%≤ substrate protein remaining % ≤80%)

Compound: O=C1CCC(N2Cc3cc(SC4CN(C(c5ccc(Cl)cc5)c5ccc(Cl)cc5)C4)ccc3C2=O)C(=O)N1 (stereo not shown) [GT-06504, 3-(5-((1-(bis(4-chlorophenyl)methyl)azetidin-3-yl)thio)-1-oxoisoindolin-2-yl)piperidine-2,6-dione]
- IC50 [1]: 500 to 1000 nM

Compound: COc1ccc(C(c2ccc(OC)cc2)N2CC(Sc3ccc4c(c3)CN(C3CCC(=O)NC3=O)C4=O)C2)cc1 (stereo not shown) [GT-06923, 3-(5-((1-(bis(4-methoxyphenyl)methyl)azetidin-3-yl)thio)-1-oxoisoindolin-2-yl)piperidine-2,6-dione]
- IC50 [1]: < 500 nM
